Laboratory results as given in patent US6787551B2, “Thiazolidinedione derivatives and pharmaceutical composition comprising the same” (Chong Kun Dang Pharmaceutical Corporation, priority 2002, dated 2004).
Where two headings read alike, the source gives them in different places.

Columns and labels:
[1] = system: mice with diabetes (KK/Ay); experiment: Blood glucose- and blood lipid-lowering action in mice with diabetes; type: in vivo; settings: male KK/Ay mice, daily oral administration for 5 days; for Blood glucose (ED25): dose reducing blood glucose by 25%; for Triglyceride (ED25): dose reducing triglyceride by 25%
Protocol: Male mice with diabetes (KK/Ay: 10 weeks old, 5 animals/group) were housed and given free access to water and food. The animals received a daily oral administration of the test compounds for 5 days. After the last dose, a blood sample was drawn via the orbital sinus.
The plasma was analyzed for blood glucose content using the Glucose-E kit (YEONGDONG PHARMACEUTICAL CO. LTD., Korea), and for triglyceride content using the Triglyceride kit (YEONGDONG PHARMACEUTICAL CO. LTD., Korea).

[2] = system: primary cultured rat hepatocytes; experiment: Cytotoxicity assay in primary cultured rat hepatocytes (neutral red); settings: for Safety index (TC25 nM/EC50 nM): TC25 in hepatocyte cytotoxicity assay / EC50 in triglyceride accumulation assay; for Cytotoxicity in hepatocyte (TC25 uM): primary rat hepatocytes, 24 h, neutral red, 25% toxic concentration
Protocol: Hepatocytes isolated from rat were inoculated in a collagen-coated 24 well plate and was incubated in a CO2 incubator at 37° C. for 24 hours. Then, a certain concentration of each of the test compounds was added, and the cells were again incubated for 24 hours. The cells were then incubated in a 0.4% neutral red containing medium for 4 hours and washed once with phosphate buffer. 0.5 ml of a solution of 1% acetic acid-50% ethanol was added to the cells, which were let stand. 200 ul of the cell sample was taken and absorbance was measured at 570 nm. The cytotoxicity assay performed on hepatocytes was measured as 25% toxic concentration (TC25, uM). Then, the safety index, i.e. the TC25 value in the cytotoxicity assay in hepatocyte/the EC50 value in the triglyceride accumulation assay, was calculated.

[3] = system: differentiated 3T3-L1 cell; experiment: 2-Deoxy-D-[2,6-3H] glucose uptake assay; type: cell-based; settings: differentiated 3T3-L1 cells, 24 h with compound, 0.5 nM insulin, concentration giving 50% of maximum enhancement of insulin activation, read-out: 2-deoxyglucose uptake (EC50 nM)
Protocol: 1) 2-Deoxy-D-[2,6-3H] glucose uptake assay (in differentiated 3T3-L1 cell)
Undifferentiated adipocyte 3T3-L1 cells were inoculated in a 24-well plate and cultivated in a CO2 incubator at 37° C. To induce differentiation of the undifferentiated adipocytes, the cells were then incubated in a differentiation medium. After adding a certain concentration of each of the test compounds to the medium, the cells were again incubated for 24 hours. After removing the medium, the cells were washed with phosphate buffer, and 0.5 nM of insulin in phosphate buffer was added to the washed cells, followed by incubation for 40 minutes. Then, 0.5 uCi of 2-deoxy-D-[2,6-3H] glucose per well was again added to the cells, which were let stand for 4 minutes. Then, the cells were washed with phosphate buffer, and cell lysis buffer was added, so as to dissolve the cell membranes. The cell sample was placed into a liquid scintillation cocktail solution. The radioactivity of the sample was counted by a liquid scintillation counter.

[4] = system: 3T3-L1 cells; experiment: Triglyceride accumulation assay; type: cell-based; settings: 4 days with compound, concentration giving 50% of maximum enhancement of rosiglitazone activation
Protocol: 2) Triglyceride accumulation assay (in 3T3-L1 cells)
Undifferentiated adipocyte 3T3-L1 cells were inoculated in a 24-well plate and cultivated in a CO2 incubator at 37° C. To induce differentiation of the undifferentiated adipocytes, the cells were then incubated in a differentiation medium for 48 hours. After adding a certain concentration of each of the test compounds to the differentiation medium, the cells were again incubated for 4 days. Then, the final cell sample was placed into 200 μl of 2-propanol. The amount of triglyceride in the cells were measured by Triglyceride Kit [YEONGDONG PHARMACEUTICAL CO. LTD., Korea] commercially available.

With “5-(4-[2-(N-methyl-N-2-(4-(4-isopropyl)pyridinyl)amino)ethoxy]benzyl)-2,4-thiazolidinedione [Ex. 36]” the “Blood glucose (ED25)” value [1] was 3.5 mg/kg, the “Triglyceride (ED25)” value [1] was 14.9 mg/kg and the “Safety index (TC25 nM/EC50 nM)” value [2] was 4663. The “Cytotoxicity in hepatocyte (TC25 uM)” value [2] was 76000 nM, the EC50 [3] was 20.9 nM and the EC50 [4] was 16.3 nM.

With “5-(4-[2-(N-methyl-N-(2-(4-(4-chloro)phenoxy)pyridinyl)amino)ethoxy]benzyl)-2,4-thiazolidinedione [Ex. 34]” the “Blood glucose (ED25)” value [1] was 1.9 mg/kg, the “Triglyceride (ED25)” value [1] was 5.6 mg/kg and the “Safety index (TC25 nM/EC50 nM)” value [2] was 48667. For the same molecule, the “Cytotoxicity in hepatocyte (TC25 uM)” value [2] was 73000 nM, the EC50 [3] was 4 nM and the EC50 [4] was 1.5 nM.

In the case of “5-(4-[2-(N-methyl-N-(2-(4-(4-fluoro)phenoxy)pyridinyl)amino)ethoxy]benzyl)-2,4-thiazolidinedione [Ex. 33]”, the “Blood glucose (ED25)” value [1] is reported as 1.1 mg/kg, the “Triglyceride (ED25)” value [1] is reported as 6.5 mg/kg and the “Safety index (TC25 nM/EC50 nM)” value [2] is reported as 17679. For the same molecule, the “Cytotoxicity in hepatocyte (TC25 uM)” value [2] was 99000 nM, the EC50 [3] was 8.9 nM and the EC50 [4] was 5.6 nM.

In the case of `CN(CCOc1ccc(C=C2SC(=O)NC2=O)cc1)c1cc(Oc2ccccc2)ncn1` [Ex. 1], the “Blood glucose (ED25)” value [1] is reported as 4.0 mg/kg, the “Triglyceride (ED25)” value [1] is reported as 30 mg/kg and the “Safety index (TC25 nM/EC50 nM)” value [2] is reported as 2578. For the same molecule, the “Cytotoxicity in hepatocyte (TC25 uM)” value [2] was 98000 nM, the EC50 [3] was 58 nM and the EC50 [4] was 38 nM.

For `CN(CCOc1ccc(C=C2SC(=O)NC2=O)cc1)c1cc(Oc2ccc(Cl)cc2)ncn1` [Ex. 5, 5-(4-[2-(N-methyl-N-(6-(4-(4-chloro)phenoxy)pyrimidinyl)amino)ethoxy]benzylidene)-2,4-thiazolidinedione], the “Blood glucose (ED25)” value [1] was 4.0 mg/kg, the “Triglyceride (ED25)” value [1] was 28 mg/kg and the “Safety index (TC25 nM/EC50 nM)” value [2] was 2657. The “Cytotoxicity in hepatocyte (TC25 uM)” value [2] was 93000 nM, the EC50 [3] was 45 nM and the EC50 [4] was 35 nM.

`CCc1ccc(Oc2cc(N(C)CCOc3ccc(C=C4SC(=O)NC4=O)cc3)ncn2)cc1` [Ex. 9, 5-(4-[2-(N-methyl-N-(6-(4-(4-ethyl)phenoxy)pyrimidinyl)amino)ethoxy]benzylidene)-2,4-thiazolidinedione] was tested, and the “Blood glucose (ED25)” value [1] was 4.1 mg/kg, the “Triglyceride (ED25)” value [1] was 29 mg/kg and the “Safety index (TC25 nM/EC50 nM)” value [2] was 3010. For the same molecule, the “Cytotoxicity in hepatocyte (TC25 uM)” value [2] was 90000 nM, the EC50 [3] was 55.2 nM and the EC50 [4] was 29.9 nM.

For `CN(CCOc1ccc(C=C2SC(=O)NC2=O)cc1)c1cc(Oc2ccc(-c3ccccc3)cc2)ncn1` [Ex. 12, 5-(4-[2-(N-methyl-N-(6-(4-(4-phenyl)phenoxy)pyrimidinyl)amino)ethoxy]benzylidene)-2,4-thiazolidinedione], the “Blood glucose (ED25)” value [1] was 4.1 mg/kg, the “Triglyceride (ED25)” value [1] was 25 mg/kg and the “Safety index (TC25 nM/EC50 nM)” value [2] was 1816. The “Cytotoxicity in hepatocyte (TC25 uM)” value [2] was 85000 nM, the EC50 [3] was 49.5 nM and the EC50 [4] was 46.8 nM.

For `CN(CCOc1ccc(CC2SC(=O)NC2=O)cc1)c1cc(Oc2ccccc2)ncn1` (stereo not drawn) [Ex. 20, 5-(4-[2-(N-methyl-N-(6-(4-phenoxy)pyrimidinyl)amino)ethoxy]benzyl)-2,4-thiazolidinedione], the “Blood glucose (ED25)” value [1] was 0.22 mg/kg, the “Triglyceride (ED25)” value [1] was 1.2 mg/kg and the “Safety index (TC25 nM/EC50 nM)” value [2] was 29630. For the same molecule, the “Cytotoxicity in hepatocyte (TC25 uM)” value [2] was 80000 nM, the EC50 [3] was 7.5 nM and the EC50 [4] was 2.7 nM.

In the case of `CN(CCOc1ccc(CC2SC(=O)NC2=O)cc1)c1cc(Oc2ccccc2)ccn1` (stereo not drawn) [Ex. 22, 5-(4-[2-(N-methyl-N-(2-(4-phenoxy)pyridinyl)amino)ethoxy]benzyl)-2,4-thiazolidinedione], the “Blood glucose (ED25)” value [1] is reported as 0.7 mg/kg, the “Triglyceride (ED25)” value [1] is reported as 3.9 mg/kg and the “Safety index (TC25 nM/EC50 nM)” value [2] is reported as 137037. The “Cytotoxicity in hepatocyte (TC25 uM)” value [2] was 74000 nM, the EC50 [3] was 1.8 nM and the EC50 [4] was 0.54 nM.

With `CN(CCOc1ccc(CC2SC(=O)NC2=O)cc1)c1cc(Oc2ccc(F)cc2)ncn1` (stereo not drawn) [Ex. 23, 5-(4-[2-(N-methyl-N-(6-(4-(4-fluoro)phenoxy)pyrimidinyl)amino)ethoxy]benzyl)-2,4-thiazolidinedione] the “Blood glucose (ED25)” value [1] was 0.25 mg/kg, the “Triglyceride (ED25)” value [1] was 2.2 mg/kg and the “Safety index (TC25 nM/EC50 nM)” value [2] was 87654. The “Cytotoxicity in hepatocyte (TC25 uM)” value [2] was 71000 nM, the EC50 [3] was 2.4 nM and the EC50 [4] was 0.81 nM.

For `CN(CCOc1ccc(CC2SC(=O)NC2=O)cc1)c1cc(Oc2ccc(Cl)cc2)ncn1` (stereo not drawn) [Ex. 24, 5-(4-[2-(N-methyl-N-(6-(4-(4-chloro)phenoxy)pyrimidinyl)amino)ethoxy]benzyl)-2,4-thiazolidinedione], the “Blood glucose (ED25)” value [1] was 0.18 mg/kg, the “Triglyceride (ED25)” value [1] was 0.6 mg/kg and the “Safety index (TC25 nM/EC50 nM)” value [2] was 750000. For the same molecule, the “Cytotoxicity in hepatocyte (TC25 uM)” value [2] was 75000 nM, the EC50 [3] was 0.2 nM and the EC50 [4] was 0.1 nM.

With `COc1ccc(Oc2cc(N(C)CCOc3ccc(CC4SC(=O)NC4=O)cc3)ncn2)cc1` (stereo not drawn) [Ex. 25, 5-(4-[2-(N-methyl-N-(6-(4-(4-methoxy)phenoxy)pyrimidinyl)amino)ethoxy]benzyl)-2,4-thiazolidinedione] the “Blood glucose (ED25)” value [1] was 0.15 mg/kg, the “Triglyceride (ED25)” value [1] was 0.5 mg/kg and the “Safety index (TC25 nM/EC50 nM)” value [2] was 727272. The “Cytotoxicity in hepatocyte (TC25 uM)” value [2] was 80000 nM, the EC50 [3] was 0.2 nM and the EC50 [4] was 0.11 nM.

In the case of `CCOc1ccc(Oc2cc(N(C)CCOc3ccc(CC4SC(=O)NC4=O)cc3)ncn2)cc1` (stereo not drawn) [Ex. 26, 5-(4-[2-(N-methyl-N-(6-(4-(4-ethoxy)phenoxy)pyrimidinyl)amino)ethoxy]benzyl)-2,4-thiazolidinedione], the “Blood glucose (ED25)” value [1] is reported as 0.8 mg/kg, the “Triglyceride (ED25)” value [1] is reported as 4.3 mg/kg and the “Safety index (TC25 nM/EC50 nM)” value [2] is reported as 12338. The “Cytotoxicity in hepatocyte (TC25 uM)” value [2] was 95000 nM, the EC50 [3] was 14.4 nM and the EC50 [4] was 7.7 nM.

With `CC(C)Oc1ccc(Oc2cc(N(C)CCOc3ccc(CC4SC(=O)NC4=O)cc3)ncn2)cc1` (stereo not drawn) [Ex. 27, 5-(4-[2-(N-methyl-N-(6-(4-(4-isopropoxy)phenoxy)pyrimidinyl)amino)ethoxy]benzyl)-2,4-thiazolidinedione] the “Blood glucose (ED25)” value [1] was 0.8 mg/kg, the “Triglyceride (ED25)” value [1] was 4.5 mg/kg and the “Safety index (TC25 nM/EC50 nM)” value [2] was 3594. The “Cytotoxicity in hepatocyte (TC25 uM)” value [2] was 78000 nM, the EC50 [3] was 35.5 nM and the EC50 [4] was 21.7 nM.

In the case of `CCc1ccc(Oc2cc(N(C)CCOc3ccc(CC4SC(=O)NC4=O)cc3)ncn2)cc1` (stereo not drawn) [Ex. 28, 5-(4-[2-(N-methyl-N-(6-(4-(4-ethyl)phenoxy)pyrimidinyl)amino)ethoxy]benzyl)-2,4-thiazolidinedione], the “Blood glucose (ED25)” value [1] is reported as 1.8 mg/kg, the “Triglyceride (ED25)” value [1] is reported as 16.9 mg/kg and the “Safety index (TC25 nM/EC50 nM)” value [2] is reported as 40476. The “Cytotoxicity in hepatocyte (TC25 uM)” value [2] was 85000 nM, the EC50 [3] was 5.2 nM and the EC50 [4] was 2.1 nM.

With `CC(C)c1ccc(Oc2cc(N(C)CCOc3ccc(CC4SC(=O)NC4=O)cc3)ncn2)cc1` (stereo not drawn) [Ex. 30, 5-(4-[2-(N-methyl-N-(6-(4-(4-isopropyl)phenoxy)pyrimidinyl)amino)ethoxy]benzyl)-2,4-thiazolidinedione] the “Blood glucose (ED25)” value [1] was 2.1 mg/kg, the “Triglyceride (ED25)” value [1] was 21.2 mg/kg and the “Safety index (TC25 nM/EC50 nM)” value [2] was 11077. For the same molecule, the “Cytotoxicity in hepatocyte (TC25 uM)” value [2] was 72000 nM, the EC50 [3] was 13.3 nM and the EC50 [4] was 6.5 nM.

With `CN(CCOc1ccc(CC2SC(=O)NC2=O)cc1)c1cc(Oc2ccc(-c3ccccc3)cc2)ncn1` (stereo not drawn) [Ex. 31] the “Blood glucose (ED25)” value [1] was 3.2 mg/kg, the “Triglyceride (ED25)” value [1] was 12.6 mg/kg and the “Safety index (TC25 nM/EC50 nM)” value [2] was 5840. The “Cytotoxicity in hepatocyte (TC25 uM)” value [2] was 73000 nM, the EC50 [3] was 20.5 nM and the EC50 [4] was 12.5 nM.

With `COc1ccc(Oc2ccnc(N(C)CCOc3ccc(CC4SC(=O)NC4=O)cc3)c2)cc1` (stereo not drawn) [Ex. 35, 5-(4-[2-(N-methyl-N-(2-(4-(4-methoxy)phenoxy)pyridinyl)amino)ethoxy]benzyl)-2,4-thiazolidinedione] the “Blood glucose (ED25)” value [1] was 2.5 mg/kg, the “Triglyceride (ED25)” value [1] was 9.1 mg/kg and the “Safety index (TC25 nM/EC50 nM)” value [2] was 10000. For the same molecule, the “Cytotoxicity in hepatocyte (TC25 uM)” value [2] was 96000 nM, the EC50 [3] was 19.3 nM and the EC50 [4] was 9.6 nM.

For `CN(CCOc1ccc(CC2SC(=O)NC2=O)cc1)c1ccccn1` (stereo not drawn) [Rosiglitazone, reference compound], the “Blood glucose (ED25)” value [1] was 4.1 mg/kg, the “Triglyceride (ED25)” value [1] was “More than 30 mg/kg” and the “Safety index (TC25 nM/EC50 nM)” value [2] was 1489. For the same molecule, the “Cytotoxicity in hepatocyte (TC25 uM)” value [2] was 70000 nM, the EC50 ([3]; Mus musculus) was 75 nM and the EC50 ([4]; Mus musculus, 96 h) was 47 nM.
